Source: patent US20130216498A1, “IMIDAZOPYRIDINE DERIVATIVES AS JAK INHIBITORS” (priority 2009, published 2013)

Key:
Assay type in all cases: biochemical
[1] = target: T1, human JAK1 (aa 850-1154) catalytic domain (Homo sapiens, UniProt P23458); assay: In vitro JAK kinase assay (TR-FRET), JAK1; conditions: GST-fusion catalytic domain; ATP 3 μM; poly (GT)-Biotin 60 nM; 30 minutes at room temperature
T1 construct: human JAK1 (aa 850-1154); GST (N); purchased Carna Biosciences; host or cells: baculovirus expression system
Experimental: (§1) Compounds were screened for their ability to inhibit JAK1, JAK2 and JAK3 using the assays as indicated below.
(§2) The catalytic domains of human JAK1 (aa 850-1154), JAK2 (aa 826-1132), JAK3 (aa 795-1124) and Tyk2 (aa 871-1187) were expressed as N-terminal GST-fusion proteins using a baculovirus expression system and were purchased from Carna Biosciences. The enzymatic activity was assayed using as substrate a biotinylated peptide, poly (GT)-Biotin (CisBio). The peptide concentration in the reactions was 60 nM for JAK1, 20 nM for JAK2, 140 nM for JAK3 and 50 nM for Tyk2. The degree of phosphorylation was detected by TR-FRET (time-resolved fluorescence energy transfer).
(§3) IC50s of compounds were measured for each kinase in a reaction mixture containing the enzyme, ATP and the peptide in 8 mM MOPS (pH 7.0), 10 mM MgCl2, 0.05% β-mercaptoethanol, 0.45 mg/mL BSA. The ATP concentration in the reactions was 3 μM for JAK1, 0.2 μM for JAK2, 0.6 μM for JAK3 and 1.8 μM for Tyk2. The enzymatic reactions took place for 30 minutes at room temperature. Then, the reactions were stopped with 20 μL of quench detection buffer (50 mM HEPES, 0.5 M KF, EDTA 0.25 M, 0.1% (w/v) BSA, pH 7.5) containing 0.115 μg/mL of anti-phosphoTyr (PT66)-Cryptate (CisBio) and a variable concentration of SA-XL665 (CisBio) to keep the SA-B ratio constant. Incubate for 3 h and read on Victor 2V spectrofluorometer (PerkinElmer) set to read fluorescence resonance energy transfer.

[2] = target: T2, human JAK3 (aa 795-1124) catalytic domain (Homo sapiens, UniProt P52333); assay: In vitro JAK kinase assay (TR-FRET), JAK3; conditions: GST-fusion catalytic domain; ATP 0.6 μM; poly (GT)-Biotin 140 nM; 30 minutes at room temperature
T2 construct: JAK3 (aa 795-1124); GST (N); purchased Carna Biosciences; host or cells: baculovirus expression system
Experimental: as §1, §2, §3

[3] = target: T3, human JAK2 (aa 826-1132) catalytic domain (Homo sapiens, UniProt O60674); assay: In vitro JAK kinase assay (TR-FRET), JAK2; conditions: GST-fusion catalytic domain; ATP 0.2 μM; poly (GT)-Biotin 20 nM; 30 minutes at room temperature
T3 construct: JAK2 (aa 826-1132); GST (N); purchased Carna Biosciences; host or cells: baculovirus expression system
Experimental: as §1, §2, §3

T2 sequence (P52333 795-1124): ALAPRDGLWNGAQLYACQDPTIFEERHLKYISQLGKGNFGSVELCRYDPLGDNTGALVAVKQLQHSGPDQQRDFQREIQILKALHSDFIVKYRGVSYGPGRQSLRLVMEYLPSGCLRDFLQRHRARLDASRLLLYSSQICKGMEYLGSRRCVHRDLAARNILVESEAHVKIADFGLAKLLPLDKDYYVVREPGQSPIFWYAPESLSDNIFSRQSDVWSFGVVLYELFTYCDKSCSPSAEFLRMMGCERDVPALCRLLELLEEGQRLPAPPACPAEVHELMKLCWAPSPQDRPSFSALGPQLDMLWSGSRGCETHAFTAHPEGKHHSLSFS
T1 sequence (P23458 850-1154): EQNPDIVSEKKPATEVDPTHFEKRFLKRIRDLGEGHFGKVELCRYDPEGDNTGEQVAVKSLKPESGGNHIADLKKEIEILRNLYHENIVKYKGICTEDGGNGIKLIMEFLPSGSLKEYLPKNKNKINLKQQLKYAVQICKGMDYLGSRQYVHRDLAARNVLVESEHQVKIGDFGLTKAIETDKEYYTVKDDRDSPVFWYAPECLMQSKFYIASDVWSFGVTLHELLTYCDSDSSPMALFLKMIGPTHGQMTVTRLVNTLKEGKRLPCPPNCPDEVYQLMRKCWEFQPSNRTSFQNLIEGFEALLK
T3 sequence (O60674 826-1132): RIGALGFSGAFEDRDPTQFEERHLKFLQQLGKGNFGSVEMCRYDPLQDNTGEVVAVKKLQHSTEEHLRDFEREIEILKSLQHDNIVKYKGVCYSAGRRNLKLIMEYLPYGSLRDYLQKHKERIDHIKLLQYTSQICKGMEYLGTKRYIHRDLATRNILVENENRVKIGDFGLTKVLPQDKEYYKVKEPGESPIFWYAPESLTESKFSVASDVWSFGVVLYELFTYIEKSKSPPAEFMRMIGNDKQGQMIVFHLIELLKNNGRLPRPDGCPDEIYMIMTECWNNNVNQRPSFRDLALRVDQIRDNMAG

| SMILES | IC50 [1] | IC50 [2] | IC50 [3] |
| --- | --- | --- | --- |
| C[C@H](Nc1ccnc(-c2cnc3ccc(C#N)cn23)n1)c1ccccc1 [Example 1, 3-(4-{[(1S)-1-Phenylethyl]amino}pyrimidin-2-yl)imidazo[1,2-a]pyridine-6-carbonitrile] | 100 to 1000 nM | < 100 nM | < 100 nM |
| COCCNc1ccnc(-c2cnc3ccc(C#N)cn23)n1 [Example 6, 3-{4[(2-Methoxyethyl)amino]pyrimidin-2-yl}imidazo[1,2-a]pyridine-6-carbonitrile] | > 1000 nM | 100 to 1000 nM | 100 to 1000 nM |
| CC(C)(C)CNc1nc(-c2cnc3ccc(C#N)cn23)ncc1N1CCNCC1 [Example 10, 3-{4-[(2,2-Dimethylpropyl)amino]-5-piperazin-1-ylpyrimidin-2-yl}imidazo[1,2-a]pyridine-6-carbonitrile] | > 1000 nM | 100 to 1000 nM | < 100 nM |
| CC(C)(C)CNc1nc(-c2cnc3ccc(C#N)cn23)ncc1-c1cccnc1 [Example 13, 3-{4-[(2,2-Dimethylpropyl)amino]-5-pyridin-3-ylpyrimidin-2-yl}imidazo[1,2-a]pyridine-6-carbonitrile] | > 1000 nM | 100 to 1000 nM | 100 to 1000 nM |
| N#Cc1ccc2ncc(-c3nccc(NC4CCCCC4)n3)n2c1 [Example 21, 3-[4-(Cyclohexylamino)pyrimidin-2-yl]imidazo[1,2-a]pyridine-6-carbonitrile] | 100 to 1000 nM | < 100 nM | < 100 nM |
| N#Cc1ccc2ncc(-c3nccc(N[C@H]4CC[C@H](O)CC4)n3)n2c1 [Example 22, 3-{4-[(Trans-4-hydroxycyclohexyl)amino]pyrimidin-2-yl}imidazo[1,2-a]pyridine-6-carbonitrile] | > 1000 nM | < 100 nM | < 100 nM |
| CC(C)(C)CNc1nc(-c2cnc3ccc(C#N)cn23)nc2ccccc12 [Example 25] | 100 to 1000 nM | 100 to 1000 nM | 100 to 1000 nM |
| CC(C)(C)CNc1ccnc(-c2cnc3ccccn23)n1 [Example 31, N-(2,2-Dimethylpropyl)-2-imidazo[1,2-a]pyridin-3-ylpyrimidin-4-amine] | 100 to 1000 nM | 100 to 1000 nM | < 100 nM |
| C[C@H](Nc1cncc(-c2cnc3ccc(C4CC4)cn23)n1)c1ccccc1 [Example 38, 6-(6-Cyclopropylimidazo[1,2-a]pyridin-3-yl)-N-[(1S)-1-phenylethyl]pyrazin-2-amine] | > 1000 nM | 100 to 1000 nM | < 100 nM |
| C[C@H](Nc1cncc(-c2cnc3ccc(-c4ccccc4)cn23)n1)c1ccccc1 [Example 42, N-[(1S)-1-Phenylethyl]-6-(6-phenylimidazo[1,2-a]pyridin-3-yl)pyrazin-2-amine] | > 1000 nM | > 1000 nM | 100 to 1000 nM |
| CC(C)S(=O)(=O)N1CCC[C@@H](Nc2ccnc(-c3cnc4ccc(C#N)cn34)n2)C1 [Example 45, 3-(4-{[(3R)-1-(Isopropylsulfonyl)piperidin-3-yl]amino}pyrimidin-2-yl)imidazo[1,2-a]pyridine-6-carbonitrile] | > 1000 nM | 100 to 1000 nM | 100 to 1000 nM |

The remaining lines, values ahead:

| IC50 [1] | IC50 [2] | IC50 [3] | SMILES |
| --- | --- | --- | --- |
| > 1000 nM | < 100 nM | < 100 nM | N#Cc1ccc(N2CCC[C@@H](Nc3ccnc(-c4cnc5ccc(C#N)cn45)n3)C2)nc1 [Example 57, 3-(4-{[(3R)-1-(5-Cyanopyridin-2-yl)piperidin-3-yl]amino}pyrimidin-2-yl)imidazo[1,2-a]pyridine-6-carbonitrile] |
| < 100 nM | < 100 nM | < 100 nM | N#CCC(=O)N1CCC[C@@H](Nc2ccnc(-c3cnc4ccc(F)cn34)n2)C1 [Example 64, 3-((3R)-3-{[2-(6-Fluoroimidazo[1,2-a]pyridin-3-yl)pyrimidin-4-yl]amino}piperidin-1-yl)-3-oxopropanenitrile] |
| 100 to 1000 nM | 100 to 1000 nM | < 100 nM | O=C(c1cn[nH]c1)N1CCC[C@@H](Nc2ccnc(-c3cnc4ccc(F)cn34)n2)C1 [Example 67, 2-(6-Fluoroimidazo[1,2-a]pyridin-3-yl)-N-[(3R)-1-(1H-pyrazol-4ylcarbonyl)piperidin-3-yl]pyrimidin-4-amine] |
| 100 to 1000 nM | < 100 nM | < 100 nM | CN(CC#N)C(=O)N1CCC[C@@H](Nc2ccnc(-c3cnc4ccc(F)cn34)n2)C1 [Example 68, (3R)—N-(Cyanomethyl)-3-{[2-(6-fluoroimidazo[1,2-a]pyridin-3-yl)pyrimidin-4-yl]amino}-N-methylpiperidine-1-carboxamide] |
| > 1000 nM | 100 to 1000 nM | < 100 nM | O=C(CC(F)(F)F)N1CCC[C@@H](N(CC2CC2)c2ccnc(-c3cnc4ccc(F)cn34)n2)C1 [Example 76, N-(Cyclopropylmethyl)-2-(6-fluoroimidazo[1,2-a]pyridin-3-yl)-N-[(3R)-1-(3,3,3-trifluoropropanoyl)piperidin-3-yl]pyrimidin-4-amine] |
| < 100 nM | < 100 nM | < 100 nM | Cc1cnc(-c2cnc3ccc(F)cn23)nc1N[C@@H]1CCCN(C(=O)CC(F)(F)F)C1 [Example 80, 2-(6-Fluoroimidazo[1,2-a]pyridin-3-yl)-5-methyl-N-[(3R)-1-(3,3,3-trifluoropropanoyl)piperidin-3-yl]pyrimidin-4-amine] |
| > 1000 nM | > 1000 nM | 100 to 1000 nM | N#CCC(=O)N1CCCN(c2ccnc(-c3cnc4ccc(C#N)cn34)n2)CC1 [Example 82, 3-{4-[4-(Cyanoacetyl)-1,4-diazepan-1-yl]pyrimidin-2-yl}imidazo[1,2-a]pyridine-6-carbonitrile] |
| > 1000 nM | > 1000 nM | 100 to 1000 nM | CCCN1CC[C@@H](Nc2ccnc(-c3cnc4ccc(F)cn34)n2)C1=O [Example 89, (R)-3-(2-(6-Fluoroimidazo[1,2-a]pyridin-3-yl)pyrimidin-4-ylamino)-1-propyl pyrrolidin-2-one] |
| > 1000 nM | < 100 nM | < 100 nM | Fc1ccc2ncc(-c3nccc(N4CCCC4c4ccccn4)n3)n2c1 (stereo not drawn) [Example 90, 6-Fluoro-3-(4-(2-(pyridin-2-yl)pyrrolidin-1-yl)pyrimidin-2-yl)imidazo[1,2-a]pyridine] |
| 100 to 1000 nM | > 1000 nM | < 100 nM | CCN(CC)C(=O)[C@H]1CCCN1c1ccnc(-c2cnc3ccc(F)cn23)n1 [Example 92, (R)—N,N-Diethyl-1-(2-(6-fluoroimidazo[1,2-a]pyridin-3-yl)pyrimidin-4-yl)pyrrolidine-2-carboxamide] |
| > 1000 nM | 100 to 1000 nM | < 100 nM | O=C(C1CC1(F)F)N1CCC[C@@H](Nc2ccnc(-c3cnc4ccc(F)cn34)n2)C1 (stereo partly drawn) [Example 102, (2,2-Difluorocyclopropyl)((R)-3-(2-(6-fluoroimidazo[1,2-a]pyridin-3-yl)pyrimidin-4-ylamino)piperidin-1-yl)methanone] |
| > 1000 nM | > 1000 nM | < 100 nM | O=C(Cc1ccc(CO)cc1)N1CCC[C@@H](Nc2ccnc(-c3cnc4ccc(F)cn34)n2)C1 [Example 107, (R)-1-(3-(2-(6-Fluoroimidazo[1,2-a]pyridin-3-yl)pyrimidin-4-ylamino)piperidin-1-yl)-2-(4-(hydroxymethyl)phenyl)ethanone] |
| < 100 nM | < 100 nM | < 100 nM | N#Cc1cnc(N2CCC[C@@H](Nc3ccnc(-c4cnc5ccc(F)cn45)n3)C2)s1 [Example 131, (R)-2-(3-(2-(6-Fluoroimidazo[1,2-a]pyridin-3-yl)pyrimidin-4-ylamino)piperidin-1-yl)thiazole-5-carbonitrile] |
| 100 to 1000 nM | 100 to 1000 nM | < 100 nM | Cc1cnc(-c2cnc3ccc(F)cn23)nc1N[C@@H]1CCN(C(=O)CC#N)C1 [Example 134, (R)-3-(3-(2-(6-Fluoroimidazo[1,2-a]pyridin-3-yl)-5-methylpyrimidin-4-ylamino)pyrrolidin-1-yl)-3-oxopropanenitrile] |
| < 100 nM | < 100 nM | < 100 nM | Nc1cnc(-c2cnc3ccc(F)cn23)nc1NCc1ccc(F)cn1 [Example 136] |
| > 1000 nM | 100 to 1000 nM | < 100 nM | Nc1cnc(-c2cnc3ccc(F)cn23)nc1NC1CCCc2ncccc21 (stereo not drawn) [Example 137, 2-(6-Fluoroimidazo[1,2-a]pyridin-3-yl)-N^4-(5,6,7,8-tetrahydroquinolin-5-yl)pyrimidine-4,5-diamine] |
